Assay [1] has as its target T1, FXR ligand binding domain (Homo sapiens, UniProt Q96RI1).
T1 construct: expressed in transfected cells; host or cells: HEK293 cells, transiently transfected with pCMV-BD-FXR-LBD, pFR-Luc and pRL-CMV
T1 sequence (Q96RI1 187-472 isoform Q96RI1-2): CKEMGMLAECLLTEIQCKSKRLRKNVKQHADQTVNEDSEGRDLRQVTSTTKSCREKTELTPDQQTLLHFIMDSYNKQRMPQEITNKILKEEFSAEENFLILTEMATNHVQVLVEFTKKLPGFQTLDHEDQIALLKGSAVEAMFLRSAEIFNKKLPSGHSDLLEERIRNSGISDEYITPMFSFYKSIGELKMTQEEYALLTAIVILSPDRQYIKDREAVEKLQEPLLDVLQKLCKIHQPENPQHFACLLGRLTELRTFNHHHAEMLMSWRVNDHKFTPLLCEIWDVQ
In words: Mammalian One Hybrid (M1H) assay, Gal4 promoter driven transactivation in HEK293 cells. In kind it is cell-based. Conditions: Gal4-FXR-LBD luciferase reporter, 16 h. On the procedure: Mammalian One Hybrid (M1H) Assay
Determination of a ligand mediated Gal4 promoter driven transactivation to quantify ligand binding mediated activation of FXR was performed as follows: The cDNA part encoding the FXR ligand binding domain was cloned into vector pCMV-BD (Stratagene) as a fusion to the yeast GAL4 DNA binding domain under the control of the CMV promoter. The amino acid boundaries of the ligand binding domain were amino acids 187-472 of Database entry NM_005123 (RefSeq). The plasmid pFR-Luc (Stratagene) was used as the reporter plasmid, containing a synthetic promoter with five tandem repeats of the yeast GAL4 binding sites, driving the expression of the Photinus pyralis (American firefly) luciferase gene as the reporter gene. In order to improve experimental accuracy the plasmid pRL-CMV (Promega) was cotransfected. pRL-CMV contains the constitutive CMV promoter, controlling the expression of the Renilla reniformis luciferase. All Gal4 reporter gene assays were done in HEK293 cells (obtained from DSMZ, Braunschweig, Germany) grown in MEM with L-Glutamine and Earle's BSS supplemented with 10% fetal bovine serum, 0.1 mM nonessential amino acids, 1 mM sodium pyruvate, and 100 units Penicilin/[…] per mL at 37° C. in 5% CO2. Medium and supplements were obtained from Invitrogen. For the assay, […] cells were plated per well in 96 well plates in 100 μL per well MEM without Phenol Red and L-Glutamine and with Earle's BSS supplemented with 10% charcoal/dextran treated FBS (HyClone, South Logan, Utah), 0.1 mM nonessential amino acids, 2 mM glutamine, 1 mM sodium pyruvate, and 100 units Penicilin/[…] per mL, incubated at 37° C. in 5% CO2. The following day the cells were >90% confluence. Medium was removed and cells were transiently transfected using 20 μL per well of a OptiMEM—polyethylene-imine-based transfection-reagent (OptiMEM, Invitrogen; Polyethyleneimine, Aldrich Cat No. 40,827-7) including the three plasmids described above. MEM with the same composition as used for plating cells was added 2-4 h after addition of transfection mixture. Then compound stocks, prediluted in MEM were added (final vehicle concentration not exceeding 0.1%). Cells were incubated for additional 16 h before firefly and renilla luciferase activities were measured sequentially in the same cell extract using a Dual-Light-Luciferase-Assay system (Dyer et al., Anal. Biochem. 2000, 282, 158-161). All experiments were done in triplicates.
A general note: Reporter assays use an easily measured gene product as a stand-in for the process of interest.

The target of assay [2] is T2, human FXR alpha ligand binding domain (Homo sapiens, UniProt Q96RI1).
T2 construct: made in house; host or cells: E. coli BL21(DE3), vector pDEST15
T2 sequence (Q96RI1 187-472 isoform Q96RI1-2): T1 sequence (Q96RI1 187-472 isoform Q96RI1-2)
Put plainly: FRET activity assay (ligand mediated cofactor peptide interaction, LANCE). In kind it is biochemical. Conditions: GST-FXR-LBD / biotinylated SRC-1 peptide (676-700), read-out: F EC50. On the procedure: Determination of a ligand mediated cofactor peptide interaction to quantify ligand binding to the nuclear receptor FXR was performed as follows: Preparation of human FXR alpha ligand binding domain: The human FXRalpha LBD was expressed in E. coli strain BL21(DE3) as an N-terminally GST tagged fusion protein. The DNA encoding the FXR ligand binding domain was cloned into vector pDEST15 (Invitrogen). Expression was under control of an IPTG inducible T7 promoter. The amino acid boundaries of the ligand binding domain were amino acids 187-472 of Database entry NM_005123 (RefSeq). Expression and purification of the FXR-LBD: An overnight preculture of a transformed E. coli strain was diluted 1:20 in LB-Ampicillin medium and grown at 30° C. to an optical density of OD600=0.4-0.6. Gene expression was then induced by addition of 0.5 mM IPTG. Cells were incubated an additional 6 h at 30° C., 180 rpm. Cells were collected by centrifugation (7000×g, 7 min, rt). Per liter of original cell culture, cells were resuspended in 10 mL lysis buffer (50 mM Glucose, 50 mM Tris pH 7.9, 1 mM EDTA and 4 mg/mL lysozyme) and left on ice for 30 min. Cells were then subjected to sonication and cell debris removed via centrifugation (22000×g, 30 min, 4° C.). Per 10 mL of supernatant 0.5 mL prewashed Glutathione 4B sepharose slurry (Qiagen) was added and the suspension kept slowly rotating for 1 h at 4° C. Glutathione 4B sepharose beads were pelleted by centrifugation (2000×g, 15 sec, 4° C.) and washed twice in wash buffer (25 mM Tris, 50 mM KCl, 4 mM MgCl2 and 1M NaCl). The pellet was resuspended in 3 mL elution buffer per liter of original culture (elution buffer: 20 mM Tris, 60 mM KCl, 5 mM MgCl2 and 80 mM glutathione added immediately prior to use as powder). The suspension was left rotating for 15 min at 4° C., the beads pelleted and eluted again with half the volume of elution buffer than the first time. The eluates were pooled and dialysed overnight in 20 mM Hepes buffer (pH 7.5) containing 60 mM KCl, 5 mM MgCl2 as well as 1 mM dithiothreitol and 10% (v/v) glycerol. The protein was analysed by SDS-Page.
The method measures the ability of putative ligands to modulate the interaction between the purified bacterial expressed FXR ligand binding domain (LBD) and a synthetic biotinylated peptide based on residues 676-700 of SRC-1 (LCD2, 676-700). The sequence of the peptide used was B—[…]—COOH where the N-terminus was biotinylated (B). The ligand binding domain (LBD) of FXR was expressed as fusion protein with GST in BL-21 cells using the vector pDEST15. Cells were lysed by sonication, and the fusion proteins purified over glutathione sepharose (Pharmacia) according to the manufacturers instructions. For screening of compounds for their influence on the FXR-peptide interaction, the Perkin Elmer LANCE technology was applied. This method relies on the binding dependent energy transfer from a donor to an acceptor fluorophor attached to the binding partner of interest. For ease of handling and reduction of background from compound fluorescence LANCE technology makes use of generic fluorophore labels and time resolved detection Assays were done in a final volume of 25 μL in a 384 well plate, in a Tris-based buffer (20 mM Tris-HCl pH 7.5; 60 mM KCl, 5 mM MgCl2; 35 ng/μL BSA), containing 20-60 ng/well recombinantly expressed FXR-LBD fused to GST, 200-600 nM N-terminally biotinylated peptide, representing SRC1 aminoacids 676-700, 200 ng/well Streptavidin-xIAPC conjugate (Prozyme) and 6-10 ng/well Eu W1024-antiGST (Perkin Elmer). DMSO content of the samples was kept at 1%. After generation of the assay mix and diluting the potentially FXR modulating ligands, the assay was equilibrated for 1 h in the dark at rt in FIA-plates black 384 well (Greiner). The LANCE signal was detected by a Perkin Elmer VICTOR2VTM Multilabel Counter. The results were visualized by plotting the ratio between the emitted light at 665 and 615 nm. […]

A value given as a limit tells only on which side of the number the result lay.

`OCc1ccc(F)c([C@]2(O)CC[C@@H](OCc3c(-c4c(Cl)cccc4Cl)noc3C3CC3)CC2)c1` [Example 9-7, (1s,4s)-4-((5-Cyclopropyl-3-(2,6-dichlorophenyl)isoxazol-4-yl)methoxy)-1-(2-fluoro-5-(hydroxymethyl)phenyl)cyclohexanol]: the EC50 (as a rule, the concentration at which the effect is half-maximal) in assay [1] was 150 nM; in assay [2] it was 110 nM.

As for `O=C(O)c1ccc2nc([C@]3(O)CC[C@@H](OCc4c(C5CCC(F)(F)CC5)noc4C4CC4)CC3)sc2c1` [Example 11-1, 2-((1s,4s)-4-((5-Cyclopropyl-3-(4,4-difluorocyclohexyl)isoxazol-4-yl)methoxy)-1-hydroxycyclohexyl)benzo[d]thiazole-6-carboxylic acid], the EC50 in assay [1] was > 3000 nM; in assay [2] it was 2200 nM.

Take `O=C(O)c1ccc2nc([C@]3(O)CC[C@H](OCc4c(C5CCC(F)(F)CC5)noc4C4CC4)CC3)sc2c1` [Example 11-2, 2-((1r,4r)-4-((5-Cyclopropyl-3-(4,4-difluorocyclohexyl)isoxazol-4-yl)methoxy)-1-hydroxycyclohexyl)benzo[d]thiazole-6-carboxylic acid]: the EC50 in assay [1] was > 3000 nM; in assay [2], 8600 nM.

Take `O=C(O)c1ccc2nc([C@]3(O)CC[C@@H](OCc4c(C5CCC6(CC5)CC6)noc4C4CC4)CC3)sc2c1` [Example 11-3, 2-((1s,4s)-4-((5-Cyclopropyl-3-(spiro[2.5]octan-6-yl)isoxazol-4-yl)methoxy)-1-hydroxycyclohexyl)benzo[d]thiazole-6-carboxylic acid]: the EC50 in assay [1] amounted to 2100 nM; in assay [2], 1300 nM.

For the molecule `O=C(O)c1ccc([C@]2(O)CC[C@@H](OCc3c(-c4c(Cl)cccc4Cl)noc3C3CC3)CC2)c(F)c1` [Example 11-5, 4-((1s,4s)-4-((5-Cyclopropyl-3-(2,6-dichlorophenyl)isoxazol-4-yl)methoxy)-1-hydroxycyclohexyl)-3-fluorobenzoic acid], the results for the EC50 in assay [1] and in assay [2] were 94 nM and 60 nM, respectively.

Regarding `O=C(O)c1ccnc([C@]2(O)CC[C@@H](OCc3c(-c4c(Cl)cccc4Cl)noc3C3CC3)CC2)c1` [Example 11-6, 2-((1s,4s)-4-((5-Cyclopropyl-3-(2,6-dichlorophenyl)isoxazol-4-yl)methoxy)-1-hydroxycyclohexyl)isonicotinic acid], the EC50 was 51 nM in assay [1] and 40 nM in assay [2].

With `O=C(O)c1cc(F)c2nc([C@]3(O)CC[C@@H](OCc4c(-c5ccccc5OC(F)F)noc4C4CC4)CC3)sc2c1` [Example 11-7, 2-((1s,4s)-4-((5-Cyclopropyl-3-(2-(difluoromethoxy)phenyl)isoxazol-4-yl)methoxy)-1-hydroxycyclohexyl)-4-fluorobenzo[d]thiazole-6-carboxylic acid], the values for the EC50 in assay [1] and in assay [2] were 1300 nM and 150 nM, respectively.

`O=C(O)Cc1ccc([C@]2(O)CC[C@@H](OCc3c(-c4c(Cl)cccc4Cl)noc3C3CC3)CC2)c(F)c1` [Example 11-8, 2-(4-((1s,4s)-4-((5-Cyclopropyl-3-(2,6-dichlorophenyl)isoxazol-4-yl)methoxy)-1-hydroxycyclohexyl)-3-fluorophenyl)acetic acid]: the EC50 is > 3000 nM in assay [1] and 8000 nM in assay [2].

In the case of `O=C(O)Cc1ccc(F)c([C@]2(O)CC[C@@H](OCc3c(-c4c(Cl)cccc4Cl)noc3C3CC3)CC2)c1` [Example 11-9, 2-(3-((1s,4s)-4-((5-Cyclopropyl-3-(2,6-dichlorophenyl)isoxazol-4-yl)methoxy)-1-hydroxycyclohexyl)-4-fluorophenyl)acetic acid], the EC50 in assay [1] turned out to be 120 nM; in assay [2] it was 47 nM.

In the case of `O=C(O)c1ccc2nc([C@]3(O)CC[C@@H](OCc4c(-c5ccccc5OC(F)F)noc4C4CC4)CC3)sc2c1` [Example 11-10, 2-((1s,4s)-4-((5-Cyclopropyl-3-(2-(difluoromethoxy)phenyl)isoxazol-4-yl)methoxy)-1-hydroxycyclohexyl)benzo[d]thiazole-6-carboxylic acid], the EC50 came to 1200 nM in assay [1] and 250 nM in assay [2].

For the molecule `O=C(O)c1ccc2nc([C@]3(O)CC[C@@H](OCc4c(-c5ccccc5C5CC5)noc4C4CC4)CC3)sc2c1` [Example 11-11, 2-((1s,4s)-4-((5-Cyclopropyl-3-(2-cyclopropylphenyl)isoxazol-4-yl)methoxy)-1-hydroxycyclohexyl)benzo[d]thiazole-6-carboxylic acid], the EC50 in assay [1] was 1400 nM; in assay [2], 1000 nM.

On to `Cc1cccc(C)c1-c1noc(C2CC2)c1CO[C@H]1CC[C@](O)(c2nc3ccc(C(=O)O)cc3s2)CC1` [Example 11-12, 2-((1s,4s)-4-((5-Cyclopropyl-3-(2,6-dimethylphenyl)isoxazol-4-yl)methoxy)-1-hydroxycyclohexyl)benzo[d]thiazole-6-carboxylic acid], for which the EC50 was determined as 430 nM in assay [1] and 360 nM in assay [2].

The record behind these values is US9751874B2, “Hydroxy containing FXR (NR1H4) modulating compounds” (Gilead Sciences, Inc., priority 2014, dated 2017).
